Test [1] has as its system HL-60. As to the kind of experiment: Tested for the inhibition of HL60 cell adhesion to recombinant E-selectin-IgG fusion protein measured by cell culture assay. Type of test: functional, cell-based. As to conditions: Homo sapiens.
The subject of test [2] is HL-60. As to the kind of experiment: Tested for the inhibition of HL60 cell adhesion to recombinant P-selectin-IgG fusion protein measured by cell culture assay. Type of test: functional, cell-based. The settings on record: Homo sapiens.
In test [3] the test system is Rattus norvegicus. In words: Tested for the inhibition of leukocyte adhesion in rat mesenteric venules in vivo at a dose of 10 mg/kg measured by intravital microscopy. It counts as functional.
In test [4] the test system is Rattus norvegicus. In words: Tested for the inhibition of leukocyte adhesion in rat mesenteric venules in vivo at a dose of 3 mg/kg measured by intravital microscopy. Type of test: functional.
In test [5] the test system is Rattus norvegicus. As to the kind of experiment: Tested for the inhibition of leukocyte adhesion in rat mesenteric venules in vivo at a dose of 1 mg/kg measured by intravital microscopy. It counts as functional.

What is called IC50 is the midpoint of a concentration-inhibition curve. As a reminder, the inhibition in vivo is the share of the control response that was lost under treatment.

On to `CC1OC(OC2CCCCC2OCCCCCCCC(C(=O)O)C(=O)O)C(O)C(O)C1O` (configuration not stated), for which the concentration for half-maximal inhibition (IC50) in test [1] and in test [2] was above 5 mM throughout.

Consider `CC1OC(OC2CCCCC2OCCCCCCCCCCC(C(=O)O)C(=O)O)C(O)C(O)C1O` (configuration not stated), for which the IC50 in test [1] and in test [2] was above 5 mM in each case.

On to `CC1OC(OC2CCCCC2OC(=O)NCCC(C(=O)O)C(=O)O)C(O)C(O)C1O` (configuration not stated), for which the values for the IC50 in test [1] and in test [2] were 3.4 mM and 3.5 mM, respectively. Besides, 10 mg/kg produced 58% inhibition in vivo in test [3].

In the case of `CC1OC(OC2CCCCC2OC(=O)NCCCCC(C(=O)O)C(=O)O)C(O)C(O)C1O` (configuration not stated), the IC50 in test [1] worked out at 4 mM; in test [2] it was 4.5 mM.

For `CC(=O)N[C@H]1[C@H]([C@@H](O)[C@@H](O)CO)O[C@@](O[C@@H]2[C@H](O)[C@H](O[C@H]3[C@H](O[C@@H]4O[C@@H](C)[C@@H](O)[C@H](O)[C@@H]4O)[C@H](NC(C)=O)C(O)O[C@H]3CO)O[C@@H](CO)[C@@H]2O)(C(=O)O)C[C@H]1O` (some centres not stated), the IC50 in test [1] came to 1.5 mM; in test [2], 3 mM.

For the molecule `CC1OC(OC2CCCCC2OCCCC(C(=O)O)C(=O)O)C(O)C(O)C1O` (configuration not stated), the IC50 in test [1] and in test [2] was above 5 mM each time.

Turning to `CC1OC(OC2CCCCC2OCCCCCCCCC(C(=O)O)C(=O)O)C(O)C(O)C1O` (configuration not stated), the IC50 in test [1] and in test [2] was above 5 mM throughout.

In the case of `CC1OC(OC2CCCCC2OCCCCC(C(=O)O)C(=O)O)C(O)C(O)C1O` (configuration not stated), the IC50 in test [1] and in test [2] was above 5 mM in each case.

For the molecule `CC1OC(OC2CCCCC2OCCCCCCC(C(=O)O)C(=O)O)C(O)C(O)C1O` (configuration not stated), the IC50 in test [1] and in test [2] was above 5 mM each time.

As for `CC1OC(OC2C(OCCCCC(C(=O)O)C(=O)O)CCOC2COCCCCc2ccccc2)C(O)C(O)C1O` (configuration not stated), the IC50 amounted to 4.8 mM in test [1] and 3.6 mM in test [2]. The molecule further showed an inhibition in vivo at 3 mg/kg in test [4] of 62%.

With `CC1OC(OC2CCCCC2OCCCCCC(C(=O)O)C(=O)O)C(O)C(O)C1O` (configuration not stated), the IC50 in test [1] and in test [2] was above 5 mM throughout.

Consider `CC1OC(OC2C(OCCCCCC(C(=O)O)C(=O)O)CCOC2COCCCCc2ccccc2)C(O)C(O)C1O` (configuration not stated), for which the IC50 in test [1] was found to be 2.6 mM; in test [2], 1.2 mM. The molecule further registered an inhibition in vivo at 3 mg/kg in test [4] of 65%.

For `CC1OC(OC2CCCCC2OC(=O)NCCCC(C(=O)O)C(=O)O)C(O)C(O)C1O` (configuration not stated), the IC50 in test [1] was found to be 1 mM; in test [2] it was 0.7 mM. Besides, in test [3], at 10 mg/kg the inhibition in vivo was 85%. In test [5], at 1 mg/kg the inhibition in vivo was 54%. In test [4], this molecule gave an inhibition in vivo at 3 mg/kg of 44%.

For the origin of these results see ChEMBL document CHEMBL1149957, “MALONIC ACID DERIVATIVES AS SIALYL LEWIS X MIMETICS” (Bioorg Med Chem Lett, 1997).
